Experimental data reported in PubChem BioAssay AID1259407 (Chemical Carcinogenesis Research Information System (CCRIS), 2018).
Activity calls are given as the source filed them. No rule for the calls is given here.

System: CCRIS mutagenicity, Ames/micronucleus/aberration tests
Experiment: CCRIS mutagenicity studies
[1] = Test System: AMES SALMONELLA TYPHIMURIUM, Strain/Indicator: TA100, Metabolic Activation: NONE, Method: PREINCUBATION
[2] = Test System: AMES SALMONELLA TYPHIMURIUM, Strain/Indicator: TA98, Metabolic Activation: NONE, Method: STANDARD PLATE
[3] = Test System: AMES SALMONELLA TYPHIMURIUM, Strain/Indicator: TA98, Metabolic Activation: RAT, LIVER, S-9, AROCLOR 1254, Method: STANDARD PLATE
[4] = Test System: AMES SALMONELLA TYPHIMURIUM, Strain/Indicator: TA100, Metabolic Activation: NONE, Method: STANDARD PLATE
[5] = Test System: AMES SALMONELLA TYPHIMURIUM, Strain/Indicator: TA100, Metabolic Activation: RAT, LIVER, S-9, AROCLOR 1254, Method: STANDARD PLATE

CC(O)CNCC(C)O (stereo unspecified)
mutagenic call (Test System: AMES SALMONELLA TYPHIMURIUM, Strain/Indicator: TA98, Metabolic Activation: HAMSTER, LIVER, S-9, AROCLOR 1254 (10%), Method: PREINCUBATION): inactive; negative
mutagenic call (Test System: AMES SALMONELLA TYPHIMURIUM, Strain/Indicator: TA98, Metabolic Activation: NONE, Method: PREINCUBATION): inactive; negative
mutagenic call (Test System: AMES SALMONELLA TYPHIMURIUM, Strain/Indicator: TA98, Metabolic Activation: RAT, LIVER, S-9, AROCLOR 1254 (10%), Method: PREINCUBATION): inactive; negative
mutagenic call (Test System: AMES SALMONELLA TYPHIMURIUM, Strain/Indicator: TA100, Metabolic Activation: HAMSTER, LIVER, S-9, AROCLOR 1254 (10%), Method: PREINCUBATION): inactive; negative
mutagenic call [1]: inactive; negative
mutagenic call (Test System: AMES SALMONELLA TYPHIMURIUM, Strain/Indicator: TA100, Metabolic Activation: RAT, LIVER, S-9, AROCLOR 1254 (10%), Method: PREINCUBATION): inactive; negative
mutagenic call (Test System: AMES SALMONELLA TYPHIMURIUM, Strain/Indicator: TA1535, Metabolic Activation: HAMSTER, LIVER, S-9, AROCLOR 1254 (10%), Method: PREINCUBATION): inactive; negative
mutagenic call (Test System: AMES SALMONELLA TYPHIMURIUM, Strain/Indicator: TA1535, Metabolic Activation: NONE, Method: PREINCUBATION): inactive; negative
mutagenic call (Test System: AMES SALMONELLA TYPHIMURIUM, Strain/Indicator: TA1535, Metabolic Activation: RAT, LIVER, S-9, AROCLOR 1254 (10%), Method: PREINCUBATION): inactive; negative
mutagenic call (Test System: AMES SALMONELLA TYPHIMURIUM, Strain/Indicator: TA1537, Metabolic Activation: HAMSTER, LIVER, S-9, AROCLOR 1254 (10%), Method: PREINCUBATION): inactive; negative
mutagenic call (Test System: AMES SALMONELLA TYPHIMURIUM, Strain/Indicator: TA1537, Metabolic Activation: NONE, Method: PREINCUBATION): inactive; negative
mutagenic call (Test System: AMES SALMONELLA TYPHIMURIUM, Strain/Indicator: TA1537, Metabolic Activation: RAT, LIVER, S-9, AROCLOR 1254 (10%), Method: PREINCUBATION): inactive; negative

COC(=O)/C=C/C(C)=C\C=C\C(C)=C\C=C\C=C(C)\C=C\C=C(C)\C=C\C(=O)O
mutagenic call (Test System: Mouse lymphoma, Strain/Indicator: L5178Y (tk+/tk-), Metabolic Activation: None, Method: Suspension/plate): inactive; negative
mutagenic call (Test System: Mouse lymphoma, Strain/Indicator: L5178Y (tk+/tk-), Metabolic Activation: Rat, Liver, S-9, Aroclor 1254, Method: Suspension/plate): inactive; negative

CCOc1cc(N=Nc2ccccc2)ccc1N=Nc1c(S(=O)(=O)O)cc2ccc(N)cc2c1O
mutagenic call [2]: inactive; negative
mutagenic call [3]: active; positive
mutagenic call [4]: inactive; negative
mutagenic call [5]: active; positive
mutagenic call (Test System: AMES SALMONELLA TYPHIMURIUM, Strain/Indicator: TA1538, Metabolic Activation: NONE, Method: STANDARD PLATE): inactive; negative
mutagenic call (Test System: AMES SALMONELLA TYPHIMURIUM, Strain/Indicator: TA1538, Metabolic Activation: RAT, LIVER, S-9, AROCLOR 1254, Method: STANDARD PLATE): active; positive

O=C(O)/C(Cl)=C(\CO)C(Cl)Cl
mutagenic call (Test System: AMES SALMONELLA TYPHIMURIUM, Strain/Indicator: TA97, Metabolic Activation: NONE, Method: STANDARD PLATE): active; positive
mutagenic call (Test System: AMES SALMONELLA TYPHIMURIUM, Strain/Indicator: TA97, Metabolic Activation: RAT, LIVER, S-9, PHENOBARBITAL, Method: STANDARD PLATE): inactive; negative
mutagenic call [2]: inactive; negative
mutagenic call (Test System: AMES SALMONELLA TYPHIMURIUM, Strain/Indicator: TA98, Metabolic Activation: RAT, LIVER, S-9, PHENOBARBITAL, Method: STANDARD PLATE): inactive; negative
mutagenic call [4]: active; positive
mutagenic call (Test System: AMES SALMONELLA TYPHIMURIUM, Strain/Indicator: TA100, Metabolic Activation: RAT, LIVER, S-9, PHENOBARBITAL, Method: STANDARD PLATE): inactive; negative

c1ccc2c(c1)cc1c3c2ccc2cccc(c23)C2NC12 (stereo unspecified)
mutagenic call [2]: active; positive
mutagenic call (Test System: AMES SALMONELLA TYPHIMURIUM, Strain/Indicator: TA100, Metabolic Activation: MICROSOMAL EPOXIDE HYDROLASE, Method: PREINCUBATION): active; positive
mutagenic call [1]: active; positive
mutagenic call [4]: active; positive
mutagenic call (Test System: CHINESE HAMSTER V-79, Strain/Indicator: V-79/6-THIOGUANINE, Metabolic Activation: NONE, Method: REPLATING): active; positive
mutagenic call (Test System: CHINESE HAMSTER V-79, Strain/Indicator: V-79/6-THIOGUANINE, Metabolic Activation: NONE, Method: STANDARD PLATE): active; positive
mutagenic call (Test System: E. COLI, Strain/Indicator: WP2UVRA, Metabolic Activation: NONE, Method: STANDARD PLATE): active; positive

Cc1c2ccccc2c(C)c2ccccc12
mutagenic call [2]: active; positive
mutagenic call [3]: active; positive
mutagenic call [4]: inactive; negative
mutagenic call [5]: active; positive

O=[N+]([O-])c1cc2c3c(ccc4cccc(c43)CC2)c1
mutagenic call (Test System: AMES SALMONELLA TYPHIMURIUM, Strain/Indicator: TA98(1,8-DNP6), Metabolic Activation: NONE, Method: STANDARD PLATE): active; positive
mutagenic call (Test System: AMES SALMONELLA TYPHIMURIUM, Strain/Indicator: TA98(NR), Metabolic Activation: NONE, Method: STANDARD PLATE): active; positive
mutagenic call [2]: active; positive

O=C(O)C1CCCCC1
mutagenic call (Test System: UDS RAT GASTRIC MUCOSAL CELLS, Strain/Indicator: THY INCORP, Metabolic Activation: NONE, Method: LIQUID SCINTILLATION COUNTING): inactive; negative
